These results are taken from patent US5990094A, “Inhibitors of sorotonin N-acetyltransferase” (The Rockefeller University, priority 1998, dated 1999).

The term kcat denotes the maximal rate divided by the concentration of active sites.

Each structure is given as a SMILES string. “And” between values parts separate entries of the source, which are not always exact repeats. Equal entries are not always repeated. “Also recorded” adds a separate entry of the source. Where two headings read alike, the source gives them in different places.

Assay [1] deals with T1, GST-AANAT (Ovis aries, UniProt Q29495).
T1 construct: The entire open reading frame of the DNA encoding sheep AANAT in the plasmid vector pET15b; made in house; host or cells: Escherichia coli BL21(DE3)pLysS
T1 sequence (Q29495 other isoform, or with tags, fused parts or gaps): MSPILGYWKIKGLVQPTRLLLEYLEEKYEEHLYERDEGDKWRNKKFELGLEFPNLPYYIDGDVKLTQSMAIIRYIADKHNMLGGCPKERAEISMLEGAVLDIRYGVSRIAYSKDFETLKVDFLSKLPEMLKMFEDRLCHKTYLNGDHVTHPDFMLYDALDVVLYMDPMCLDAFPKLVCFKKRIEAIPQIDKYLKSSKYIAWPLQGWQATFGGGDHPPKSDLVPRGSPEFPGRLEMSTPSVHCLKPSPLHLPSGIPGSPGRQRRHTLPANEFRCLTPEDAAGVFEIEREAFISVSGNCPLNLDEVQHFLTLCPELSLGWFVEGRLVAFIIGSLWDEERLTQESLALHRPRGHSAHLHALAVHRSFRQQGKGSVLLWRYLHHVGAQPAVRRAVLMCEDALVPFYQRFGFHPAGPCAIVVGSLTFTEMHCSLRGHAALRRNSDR
In words: Tryptophol tested as alternative substrate of GST-AANAT. It counts as biochemical, sheep. The following applies: 1 mM tryptophol, 1 mM acetyl-CoA, up to 3 min. The protocol: (§1) DTNB Product Detection Assay
(§2) This assay is based on the detection of CoASH generated during acetyl transfer by reaction with the thiol reagent DTNB (19). […] Reactions were initiated with enzyme (3 μl, 5-30 nM final concentration) that had been prediluted (10-100 fold) in 50 mM sodium phosphate, 500 mM NaCl, 2 mM EDTA, and 0.05 mg/ml bovine serum albumin in the absence of reducing agent immediately before use and maintained on ice during the assay. The reactions were quenched for 0-3 min with 0.6 ml of a buffer containing guanidinium-HCl (3.2 M), sodium phosphate (0.1 M), pH 6.8. These mixtures were treated with 0.1 ml of DTNB (2 mM, 0.1 M sodium phosphate, pH 6.8, 10 mM EDTA), vortexed, and allowed to stand for 5 min before absorbance readings were performed at 412 nm (thiophenolate-quantified assuming ε=13.7×10^3 M^-1 cm^-1) (19). Background absorbances (with all components added including enzyme) were measured and subtracted from the total absorbance. […] The rate of conversion of acetyl-CoA to CoASH in the absence of amine was negligible over the course of the assay.
The structural analog to tryptamine in which the primary amine function is replaced by a hydroxyl function (tryptophol) (see FIG. 4) could theoretically be an alternative AANAT substrate.

For assay [2], the target named is T1, GST-AANAT. In words: Kinetic measurements with inhibitors of GST-AANAT. Format: biochemical, sheep. The protocol: as §1, §2
Kinetic Measurements with Inhibitors
.upsilon.=Vm ·S/Km (1+I/Kis) (Eq. 3) using a nonlinear least squares approach. The fixed substrate was assumed to be saturating.
.upsilon.=Vm ·S/[Km (1+I/Kis)+S(1+I/Kii)](Eq. […]
using a nonlinear least squares approach.
V=Vm ·S/[Km +S(1+I/Kii)] (Eq. 5)
The abbreviations are Kii =Ki intercept and Kis =Ki slope based on double-reciprocal plot analysis according to the nomenclature of Cleland (21). The data for individual experiments with each inhibitor versus a varied substrate were fit to all three inhibitor models. Choice of kinetic fit was based on a combination of visual inspection and comparison of S.E. values and residuals for all three inhibition types

For assay [3], the target named is T2, AANAT (Ovis aries, UniProt Q29495). In words: Tryptamine analogs as AANAT substrates, steady-state kinetic parameters. As to the method: Expression of eukaryotic proteins in bacteria is unpredictable.
T2 sequence (Q29495 whole entry): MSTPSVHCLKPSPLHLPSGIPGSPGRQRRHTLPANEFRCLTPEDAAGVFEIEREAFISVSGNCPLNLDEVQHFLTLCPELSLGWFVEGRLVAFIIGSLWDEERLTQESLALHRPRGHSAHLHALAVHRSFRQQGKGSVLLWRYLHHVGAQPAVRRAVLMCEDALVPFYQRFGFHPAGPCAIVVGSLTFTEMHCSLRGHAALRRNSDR
The enzymatic assays available for AANAT were direct, radioactive assays. […] Thus indirect methods to measure CoASH formation were tested.
The first objective of these studies was to determine the tolerance of alkyl chain length for substrate processing efficiency. […] Indole-propylamine (7.1) and indole-butylamines(7.2) are not commercially available and were prepared as shown (FIG. 7) (6l).
Another important selectivity issue was addressing the effects of a-methyl and Nw-methyl-substitutions of tryptamine analogs (FIG. 8) on AANAT catalysis. […] These compounds were obtained from commercial sources and tested as AANAT substrates. […] Using these compounds.

In assay [4] the target is T2, AANAT. In words: Viscosity studies with sucrose as microviscogen. Also noted: The entire open reading frame of the DNA encoding sheep AANAT in the plasmid vector pET15b; GST (glutathione S-transferase, thrombin-cleavable) (N); made in house; host or cells: Escherichia coli. Format: biochemical, sheep. The note with it: for slope of kcat-control/kcat-viscogen vs. relative viscosity: kcat effect (FIG. 10); for rate-determining step: viscosity studies. The source says:
An important part of enzyme mechanistic analysis is to determine which step(s) is (are) rate-determining for the enzyme reaction. After the binding of the substrates to the enzyme, there are several potential rate-determining steps, the chemical step or one of the product release steps.
Viscosity effects can be useful for distinguishing product release steps from non-diffusional steps (66). The principle of using viscosity effects to study enzyme reaction kinetics is based on the fundamental inverse relationship between microviscosity and diffusional rates. Thus a linear increase in microviscosity caused by a microviscogen such as sucrose causes a linear decrease in the diffusion of small molecules. Since little diffusion is involved in the chemical step, this step is taken as viscosity-insensitive. However, viscogenic agents (which are used at rather high concentrations) can cause non-diffusion related effects by interacting with the enzyme or substrate. Controls for these non-diffusional effects must be carried out. […] Since poor substrates in general would be expected to have reduced kcat values because the rate of their chemical steps are reduced, any viscosity effects observed would be expected to be related to non-diffusional or "artifactual" effects.

A further assay deals with GST-AANAT fusion (Ovis aries, UniProt Q29495). In words: DTNB product detection assay, apparent substrate kinetics with GST-AANAT. The protocol:
as §1
This assay is based on the detection of CoASH generated during acetyl transfer by reaction with the thiol reagent DTNB (19). […] Reactions were initiated with enzyme (3 μl, 5-30 nM final concentration) that had been prediluted (10-100 fold) in 50 mM sodium phosphate, 500 mM NaCl, 2 mM EDTA, and 0.05 mg/ml bovine serum albumin in the absence of reducing agent immediately before use and maintained on ice during the assay. The reactions were quenched for 0-3 min with 0.6 ml of a buffer containing guanidinium-HCl (3.2 M), sodium phosphate (0.1 M), pH 6.8. […] Background absorbances (with all components added including enzyme) were measured and subtracted from the total absorbance.

Assay [5] deals with T2, AANAT. In words: a-Trifluoromethyltryptamine tested as AANAT substrate and competitive inhibitor. Format: biochemical, sheep. More on the design: The entire open reading frame of the DNA encoding sheep AANAT in the plasmid vector pET15b; GST (glutathione S-transferase, thrombin-cleavable) (N); made in house; host or cells: Escherichia coli. As to the method:
Expression of eukaryotic proteins in bacteria is unpredictable. Indeed, efforts to express the rat and human AANAT protein in E. coli have so far been unsuccessful. In contrast, the sheep enzyme which is 80% identical at the amino acid level to rat and human can be expressed in E. coli as a soluble protein (51). GST-AANAT can be obtained in approximately 90% purity with a yield of 5-10 mg/L of E. coli culture after purification with glutathione-agarose. Optimization of conditions for production of this fusion protein has led to the induction being carried out at 22-24° C. for 5-6 h after 0.2 mM IPTG to prevent inclusion body formation. The fusion protein can be concentrated to>6 mg/mL using an Amicon filter and appears to be stable for at least 6 months when stored at -80° C. in the presence of a thiol-reducing agent. […] Specific activity is also highly reproducible from batch to batch. Cleavage of the fusion protein with thrombin followed by repeat glutathione-affinity chromatography has afforded GST-free AANAT.
Quantitatively, the specific activity is essentially identical to the conventional radioactive assay. Importantly, there is no evidence of significant uncoupling of CoASH production and amide formation with any substrates (or non-substrates) tested.
Commercially available bromotrifluoromethyl ketone was converted to the oxime by reaction with hydroxylamine. The oxime was used to generate the vinyl nitroso derivative which was used in situ to react in a 4+2 cycloaddition and produce the 3-substituted indole. Reduction of this material with LiAlH4 led to generation of racemic a-trifluoromethyltryptamine. a-Trifluoromethyltryptamine was calculated to have a primary amine pKa of approximately 6. […] It is not clear from these studies if the lack of tight binding of a-trifluoromethyltryptamine represents steric or electronic repulsion of the fluorines offset by the tighter binding of the neutral amine function, or if a positively charged amine is the preferred state for binding to AANAT (65).

Setting [6] is: varied substrate acetyl-CoA, tryptamine 0.2 mM (subsaturating).
The mark [7] stands for this setting: varied substrate acetyl-CoA, tryptamine 0.2 mM, read-out: Ksi.
[8] abbreviates: varied substrate tryptamine, acetyl-CoA 1 mM.
[9] abbreviates: varied substrate tryptamine, acetyl-CoA 1 mM, read-out: Kis.

GST-AANAT fusion, sequence (Q29495 whole entry, the tested form may be a part): as the sequence (Q29495 whole entry) above

Turning to `OCCc1c[nH]c2ccccc12` [Tryptophol, tryptophol], the “acetyl transfer (alternative substrate)” value is “prevents enzyme-catalyzed acetyl transfer; also recorded: not an alternative substrate” at GST-AANAT [1] and “no detectable transfer took place; also recorded: not a substrate” on GST-AANAT [1] (listed as tryptophol). For the same compound, the “acetylation efficiency relative to tryptamine, fold less” value at GST-AANAT [1] is on record as “at least 400 fold”. Moreover, the Inhibitor pattern entry at GST-AANAT [2] (setting [6]) is on record as “uncompetitive”; at GST-AANAT [2] (varied substrate acetyl-CoA, tryptamine 0.2 mM (subsaturating), listed as trypochol), “linear uncompetitive”; at GST-AANAT [2] (varied substrate acetyl-CoA, tryptamine 0.2 mM (subsaturating), listed as tryptophol), “uncompetitive inhibitor”; at GST-AANAT [2] (setting [8]) it was “competitive”; at GST-AANAT [2] (varied substrate tryptamine, acetyl-CoA 1 mM, listed as tryptophol) it was “linear competitive inhibitor”. For the same compound, the values for the Ki on GST-AANAT [2] (setting [7]) and at GST-AANAT [2] (setting [9]) were 1360 ± 120 µM and 680 ± 78 µM, respectively. On GST-AANAT [2] (versus acetyl-CoA), the “Kis relative to Kii in a noncompetitive fit” value was “more than 10 times”.

Turning to `CNCCc1c[nH]c2ccccc12` [Nw-methyltryptamine], on AANAT [3], the AANAT substrate result is listed as “substrates”; the “kcat and Km compared to tryptamine” value was “significantly reduced kcat and Km compared to tryptamine; also recorded: substantially reduced kcat compared to tryptamine”. Moreover, the “slope of kcat-control/kcat-viscogen vs. relative viscosity” value on AANAT [4] (sucrose) was “+0.16±0.03”. Further, at AANAT [4] (sucrose, kcat/Km effect), the “slope of kcat/Km control/viscogen vs. relative viscosity” value is listed as -0.14±0.03. Besides, the rate-determining step entry on AANAT [4] was “the chemical step is rate-determining”.

For `CCNC(=O)CCNC(=O)[C@H](O)C(C)(C)COP(=O)(O)OP(=O)(O)OC[C@H]1O[C@@H](n2cnc3c(N)ncnc32)[C@H](O)[C@@H]1OP(=O)(O)O` [Desulfo-CoA, desulfo-CoA], the Ki on GST-AANAT [2] (quoted in discussion, read-out: K1) is 1000 µM; on GST-AANAT [2] (varied substrate acetyl-CoA, tryptamine 1 mM, read-out: Kis), 1020 µM and 1000 µM; on GST-AANAT [2] (varied substrate tryptamine, acetyl-CoA 0.2 mM, read-out: Kis), 1340 ± 450 µM; at GST-AANAT [2] (varied substrate tryptamine, acetyl-CoA 0.2 mM, read-out: Ksi) it was 1490 ± 230 µM. In addition, the “Kis relative to dissociation constant of acetyl-CoA” value at GST-AANAT [2] (saturating tryptamine) was determined as 2 fold. Besides, the Inhibitor pattern result is “linear competitive inhibitor” at GST-AANAT [2] (varied substrate acetyl-CoA, tryptamine 1 mM); “linear competitive” on GST-AANAT [2] (varied substrate acetyl-CoA, tryptamine 1 mM, listed as desulfo-CoA); “noncompetitive inhibitor” at GST-AANAT [2] (varied substrate tryptamine, acetyl-CoA 0.2 mM); “linear noncompetitive” at GST-AANAT [2] (varied substrate tryptamine, acetyl-CoA 0.2 mM, listed as desulfo-CoA).

Consider `CC(N)Cc1c[nH]c2ccccc12` (racemic) [a-methyltryptamine], for which, on AANAT [3], the AANAT substrate entry is reported as “substrates”; the “kcat and Km compared to tryptamine” value is “significantly reduced kcat and Km compared to tryptamine”.

On to `NCCc1c[nH]c2ccc(O)cc12` [Serotonin, 5-hydroxytryptamine], for which the “kcat(app)” value on GST-AANAT fusion (1 mM (near saturating) concentration of the fixed substrate) was 34 ± 2 s⁻¹. Also, the “kcat(app) and Km(app) compared with tryptamine” value on GST-AANAT fusion (serotonin vs tryptamine) is reported as “nearly indistinguishable from those obtained with tryptamine”. Also, the kcat at AANAT [3] (Table 1, tryptamine analogs) was determined as 34 ± 1 s⁻¹.

Take `NCCc1c[nH]c2ccccc12` [Tryptamine, tryptamine]: the “slope of kcat-control/kcat-viscogen vs. relative viscosity” value at AANAT [4] (sucrose) is reported as “+0.75±0.08”. For the same compound, at AANAT [4], the rate-determining step entry is “product release (or a conformational change associated with product release) is largely rate-determining”.

On to `CC(=O)NCCc1c[nH]c2ccccc12` [N-Acetyltryptamine, N-acetyltryptamine], for which the Inhibitor pattern entry is “uncompetitive” on GST-AANAT [2] (setting [6]); “uncompetitive inhibitor” at GST-AANAT [2] (varied substrate acetyl-CoA, tryptamine 0.2 mM (subsaturating), listed as N-acetyltryptamine); “noncompetitive” at GST-AANAT [2] (setting [8]); “noncompetitive inhibitor; also recorded: linear noncompetitive” on GST-AANAT [2] (varied substrate tryptamine, acetyl-CoA 1 mM, listed as N-acetyltryptamine). In addition, the Ki at GST-AANAT [2] (setting [7]) worked out at 331 ± 23 µM; on GST-AANAT [2] (setting [9]) it was 205 ± 29 µM; at GST-AANAT [2] (varied substrate tryptamine, acetyl-CoA 1 mM, read-out: Ksi), 916 ± 160 µM.

For `NC(Cc1c[nH]c2ccccc12)C(F)(F)F` (racemic) [a-trifluoromethyltryptamine], the AANAT substrate result was “not detectably an AANAT substrate” at AANAT [5] and “not to be a substrate” on AANAT [5] (listed as Ya-Trifluoromethyltryptamine). The Ki on AANAT [5] (competitive inhibitor) amounted to 3000 ± 1000 µM.
